# Marks after values point to notes of the source that are not given here.
# Conditions: pH 2.3
row,SMILES,Log P
1,COC(=O)C(C#N)=C(Nc1ccccc1SC)c1cccnc1Cl [Compound 334],2.82^[c]; 2.82^[b]
2,COC(=O)C(C#N)=C(Nc1ccccc1OC)c1cccnc1Cl [Compound 335],2.58
3,COC(=O)C(C#N)=C(NCc1ccc(Cl)cc1)c1cccnc1Cl [Compound 336],2.98
4,COC(=O)C(C#N)=C(NCc1ccc(Cl)nc1)c1cccnc1Cl [Compound 338],2.11
5,COC(=O)C(C#N)=C(Nc1cccc(SC)c1)c1cccnc1Cl [Compound 339],3.04
6,CCOC(=O)C(C#N)=C(Nc1ccccc1SC)c1cccnc1Cl [Compound 341],3.32
7,CCOC(=O)C(C#N)=C(Nc1ccccc1SC)c1ccc(C)nc1Cl [Compound 343],3.57
8,CSc1ccccc1NC(=C(C#N)C(=O)OCC(F)(F)F)c1cccnc1Cl [Compound 344],3.55
9,CCOC(=O)C(C#N)=C(Nc1ccccc1SC)c1cc(Cl)cnc1Cl [Compound 346],3.94
10,CSc1ccccc1NC(=C(C#N)C(=O)OCC(C)C)c1cccnc1Cl [Compound 347],4.15
11,CCOC(=O)C(C#N)=C(Nc1ccccc1SC)c1ccc(Cl)nc1Cl [Compound 360],3.97

# Same assay, conditions: pH 2.7
row,SMILES,Log P
1,CCOC(=O)C(C#N)=C(NC(C)c1ccncn1)c1cccnc1Cl (stereo not drawn) [Compound 330],2.01^[a]
2,CCOC(=O)C(C#N)=C(NCC(C)c1nccs1)c1cccnc1Cl (stereo not drawn) [Compound 331],2.57^[a]
3,COC(=O)C(C#N)=C(NC(C)c1ccc(Cl)cc1)c1cccnc1Cl (stereo not drawn) [Compound 332],3.24^[a]
4,COC(=O)C(C#N)=C(NC(C)(C)c1ccc(Cl)cc1)c1cccnc1Cl [Compound 337],3.33^[a]
5,CCOC(=O)C(C#N)=C(NC(C)c1ccc(Cl)cc1)c1cn(C)nc1C(F)F (stereo not drawn) [Compound 348],3.6^[a]
6,CCOC(=O)C(C#N)=C(Nc1ccccc1SC)c1cn(C)nc1C(F)F [Compound 349],3.13^[a]
7,CCOC(=O)C(C#N)=C(Nc1ccccc1SC)c1ncc(C(F)(F)F)cc1Cl [Compound 350],4.26^[a]
8,CCOC(=O)C(C#N)=C(NC(C)c1ccc(Cl)cc1)c1ncc(C(F)(F)F)cc1Cl (stereo not drawn) [Compound 351],4.56^[a]
9,CCOC(=O)C(C#N)=C(NC(C)c1ccc(Cl)cc1)c1c(C)nn(C)c1F (stereo not drawn) [Compound 352],3.62^[a]
10,CCOC(=O)C(C#N)=C(Nc1ccccc1SC)c1c(C)nn(C)c1F [Compound 354],3.21^[a]
11,CCOC(=O)C(C#N)=C(NC(C)c1ccc(Cl)cc1)c1nsc(Cl)c1Cl (stereo not drawn) [Compound 355],4.65^[a]
12,COC(=O)C(C#N)=C(NC(C)c1ccc(Cl)cc1)c1cn(C)nc1C(F)F (stereo not drawn) [Compound 356],3.31^[a]
13,COC(=O)C(C#N)=C(Nc1ccccc1SC)c1cn(C)nc1C(F)F [Compound 357],2.8^[a]
14,CCOC(=O)C(C#N)=C(Nc1ccccc1SC)c1nsc(Cl)c1Cl [Compound 358],4.31^[a]
15,CCOC(=O)C(C#N)=C(NC(C)c1ccc(Cl)cc1)c1conc1C (stereo not drawn) [Compound 362],3.62^[a]
16,CCOC(=O)C(C#N)=C(Nc1ccccc1SC)c1conc1C [Compound 363],3.21^[a]
17,CCOC(=O)C(C#N)=C(NC(C)c1ccc(Cl)cc1)c1sccc1Br (stereo not drawn) [Compound 365],4.42^[a]
18,CCOC(=O)C(C#N)=C(Nc1ccccc1SC)c1sccc1Br [Compound 366],3.96^[a]
19,CCOC(=O)C(C#N)=C(NC(C)c1ccc(Cl)cc1)c1c(C)nn(C)c1Cl (stereo not drawn) [Compound 367],3.8^[a]
20,CCOC(=O)C(C#N)=C(NC(C)c1ccc(Cl)cc1)c1sccc1C(F)(F)F (stereo not drawn) [Compound 368],4.47^[a]
21,CCOC(=O)C(C#N)=C(Nc1ccccc1SC)c1sccc1C(F)(F)F [Compound 369],4.01^[a]
22,COC(=O)C(C#N)=C(NC(C)(C)c1ccccc1)c1cccnc1Cl [Compound 370],2.98^[a]
23,COC(=O)C(C#N)=C(NC(C)c1ccncc1)c1cccnc1Cl (stereo not drawn) [Compound 371],1.24^[a]

row,SMILES,Log P
1,CCC(NC(=C(C#N)C(=O)OC)c1cccnc1Cl)c1cccc(Cl)c1 (stereo not drawn) [Compound 372],3.58^[a]
2,COC(=O)C(C#N)=C(NC(C)c1ccccc1C)c1cccnc1Cl (stereo not drawn) [Compound 373],3.15^[a]
3,COC(=O)C(C#N)=C(NC(C)c1ccc(Cl)cc1Cl)c1cccnc1Cl (stereo not drawn) [Compound 374],3.73^[a]
4,COC(=O)C(C#N)=C(NC(C)c1ccccc1Cl)c1cccnc1Cl (stereo not drawn) [Compound 375],3.19^[a]
5,CCC(NC(=C(C#N)C(=O)OC)c1cccnc1Cl)c1ccc(Cl)cc1 (stereo not drawn) [Compound 376],3.58^[a]
6,COC(=O)C(C#N)=C(NC(C)c1cccc(OC)c1)c1cccnc1Cl (stereo not drawn) [Compound 377],2.89^[a]
7,CCOc1ccc(C(C)NC(=C(C#N)C(=O)OC)c2cccnc2Cl)cc1 (stereo not drawn) [Compound 378],3.02^[a]
8,COC(=O)C(C#N)=C(NC(C)c1ccc(C(C)C)cc1)c1cccnc1Cl (stereo not drawn) [Compound 379],4^[a]
9,COC(=O)C(C#N)=C(NC1(c2c(F)cccc2F)CC1)c1cccnc1Cl [Compound 380],2.8^[a]
10,COC(=O)C(C#N)=C(NC(c1ccc(Cl)cc1)C1CC1)c1cccnc1Cl (stereo not drawn) [Compound 381],3.58^[a]
11,COC(=O)C(C#N)=C(NC1(c2ccccc2Cl)CC1)c1cccnc1Cl [Compound 382],2.61^[a]
12,COC(=O)C(C#N)=C(NC1(c2cccc(Cl)c2)CC1)c1cccnc1Cl [Compound 383],3.11^[a]
13,COC(=O)C(C#N)=C(NC1(c2ccc(Cl)cc2)CC1)c1cccnc1Cl [Compound 384],3.19^[a]
14,COC(=O)C(C#N)=C(NC(C)(C)c1c(F)cccc1F)c1cccnc1Cl [Compound 385],2.98^[a]
15,COC(=O)C(C#N)=C(NC(C)(C)c1ccc(OC)cc1)c1cccnc1Cl [Compound 386],3.02^[a]
16,COC(=O)C(C#N)=C(NC(C)c1ccc(Cl)c(Cl)c1)c1cccnc1Cl (stereo not drawn) [Compound 387],3.58^[a]
17,COC(=O)C(C#N)=C(NC(C)c1cc(Cl)cc(Cl)c1)c1cccnc1Cl (stereo not drawn) [Compound 388],3.68^[a]
18,COC(=O)C(C#N)=C(NC(CC(F)(F)F)c1ccccc1)c1cccnc1Cl (stereo not drawn) [Compound 389],2.98^[a]
19,COC(=O)C(C#N)=C(NC(c1cccc(Cl)c1)C1CC1)c1cccnc1Cl (stereo not drawn) [Compound 390],2.93^[a]
20,CCC(NC(=C(C#N)C(=O)OC)c1cccnc1Cl)c1ccccc1OC (stereo not drawn) [Compound 391],3.15^[a]
21,COC(=O)C(C#N)=C(NC(C)c1ccccc1OC)c1cccnc1Cl (stereo not drawn) [Compound 392],2.84^[a]
22,COC(=O)C(C#N)=C(NC(C)(C)c1ccccc1Cl)c1cccnc1Cl [Compound 393],3.15^[a]
23,COC(=O)C(C#N)=C(NC(C)c1cc(Cl)ccc1Cl)c1cccnc1Cl (stereo not drawn) [Compound 394],3.28^[a]

row,SMILES,Log P
1,COC(=O)C(C#N)=C(NC(C)c1ccc(C(F)(F)F)cc1)c1cccnc1Cl (stereo not drawn) [Compound 395],3.37^[a]
2,COC(=O)C(C#N)=C(NC(C)c1cccc(C)c1)c1cccnc1Cl (stereo not drawn) [Compound 396],3.02^[a]
3,COC(=O)C(C#N)=C(NC(C)c1ccc(F)cc1)c1cccnc1Cl (stereo not drawn) [Compound 397],2.89^[a]
4,COC(=O)C(C#N)=C(NC(c1ccccc1)C1CC1)c1cccnc1Cl (stereo not drawn) [Compound 398],3.24^[a]
5,COC(=O)C(C#N)=C(NC(C)(C)c1ccc(F)cc1)c1cccnc1Cl [Compound 399],2.98^[a]
6,COC(=O)C(C#N)=C(NC(C)c1ccc(OC)c(OC)c1)c1cccnc1Cl (stereo not drawn) [Compound 400],2.34^[a]
7,COC(=O)C(C#N)=C(NC(C)c1cccc(C(F)(F)F)c1)c1cccnc1Cl (stereo not drawn) [Compound 401],3.28^[a]
8,COC(=O)C(C#N)=C(NC(C)c1ccc2c(c1)OCO2)c1cccnc1Cl (stereo not drawn) [Compound 402],2.53^[a]
9,COC(=O)C(C#N)=C(NC(C)c1cccc(Cl)c1)c1cccnc1Cl (stereo not drawn) [Compound 403],3.19^[a]
10,COC(=O)C(C#N)=C(NC(C)c1ccccc1)c1cccnc1Cl (stereo not drawn) [Compound 404],2.89^[a]
11,CCC(NC(=C(C#N)C(=O)OC)c1cccnc1Cl)c1ccccc1 (stereo not drawn) [Compound 405],3.02^[a]
12,COC(=O)C(C#N)=C(NC(C)c1ccc(C(C)(C)C)cc1)c1cccnc1Cl (stereo not drawn) [Compound 406],4.23^[a]
13,CCc1ccc(C(C)NC(=C(C#N)C(=O)OC)c2cccnc2Cl)cc1 (stereo not drawn) [Compound 407],3.63^[a]
14,COC(=O)C(C#N)=C(NC(C)c1ccc(OC)cc1)c1cccnc1Cl (stereo not drawn) [Compound 408],2.65^[a]
15,COC(=O)C(C#N)=C(NC(C)c1ccc(C)cc1)c1cccnc1Cl (stereo not drawn) [Compound 409],3.28^[a]
16,CCOC(=O)C(C#N)=C(Nc1ccccc1SC)c1c(C)nn(C)c1Cl [Compound 410],3.42^[a]
17,CCOC(=O)C(C#N)=C(NC(C)c1ccc(Cl)cc1)c1ccsc1Br (stereo not drawn) [Compound 411],4.35^[a]
18,CCOC(=O)C(C#N)=C(Nc1ccccc1SC)c1ccsc1Br [Compound 412],3.99^[a]
19,CCOC(=O)C(C#N)=C(Nc1ccccc1SC)c1cc(C)oc1C [Compound 414],3.84^[a]
20,CCOC(=O)C(C#N)=C(Nc1ccccc1SC(F)(F)C(F)(F)F)c1cc(C)oc1C [Compound 415],4.7^[a]
21,CCOC(=O)C(C#N)=C(Nc1ccccc1SCC(F)(F)F)c1cc(C)oc1C [Compound 416],4.3^[a]
22,CCOC(=O)C(C#N)=C(Nc1ccccc1S(C)(=O)=O)c1cc(C)oc1C [Compound 417],2.65^[a]
23,CCOC(=O)C(C#N)=C(Nc1ccccc1SC(F)(F)C(F)Cl)c1cc(C)oc1C (stereo not drawn) [Compound 418],4.25^[a]

# Same assay, conditions: pH 7.5
row,SMILES,Log P
1,COC(=O)C(C#N)=C(Nc1ccccc1SC)c1cccnc1Cl [Compound 334],2.82^[c]; 2.82^[b]
2,COC(=O)C(C#N)=C(Nc1ccccc1OC)c1cccnc1Cl [Compound 335],2.56
3,COC(=O)C(C#N)=C(NCc1ccc(Cl)cc1)c1cccnc1Cl [Compound 336],2.96
4,COC(=O)C(C#N)=C(NCc1ccc(Cl)nc1)c1cccnc1Cl [Compound 338],2.1
5,COC(=O)C(C#N)=C(Nc1cccc(SC)c1)c1cccnc1Cl [Compound 339],2.83
6,CCOC(=O)C(C#N)=C(Nc1ccccc1SC)c1cccnc1Cl [Compound 341],3.17
7,CCOC(=O)C(C#N)=C(NC(C)c1ccc(Cl)cc1)c1cccnc1Cl (stereo not drawn) [Compound 342],3.61
8,CCOC(=O)C(C#N)=C(Nc1ccccc1SC)c1ccc(C)nc1Cl [Compound 343],3.41
9,CSc1ccccc1NC(=C(C#N)C(=O)OCC(F)(F)F)c1cccnc1Cl [Compound 344],3.21
10,CCOC(=O)C(C#N)=C(NC(C)c1ccc(Cl)cc1)c1cccnc1Cl (stereo not drawn) [Compound 345],3.63
11,CCOC(=O)C(C#N)=C(Nc1ccccc1SC)c1cc(Cl)cnc1Cl [Compound 346],3.7
12,CSc1ccccc1NC(=C(C#N)C(=O)OCC(C)C)c1cccnc1Cl [Compound 347],3.94
13,CCOC(=O)C(C#N)=C(Nc1ccccc1SC)c1ccc(Cl)nc1Cl [Compound 360],3.79
